Test system: P. falciparum 3D7 growth, pLDH absorbance
Assay: P. falciparum 3D7 growth inhibition, dose response, strain 3D7 (AID 2305)

Compound | IC50 [nM]
COc1ccc(CCN2CCC(Nc3nc4ccccc4n3CCc3ccc(OC)cc3)CC2)cc1 | 660
Cc1cccc2[nH]c(-c3ccc(-c4ccc(CN5CCN(CCC#N)CC5)cc4)cc3)nc12 | 860
COc1ccc(NC(=O)C2c3ccccc3C(=O)N(CC(C)C)C2c2cccs2)cc1OC (configuration not stated) | 200
O=C1OC(c2cc3ccccc3n2S(=O)(=O)c2ccccc2)(c2cc3ccccc3n2S(=O)(=O)c2ccccc2)c2ccccc21 | 850
Cc1cc(NN=Cc2ccccc2[N+](=O)[O-])c2cc(F)ccc2n1 | 660
COc1ccc(C(C(=O)NC2CCN(C[C@H](O)c3ccnc4ccc(OC)cc34)CC2)N2CCN(c3ccc([N+](=O)[O-])cc3)CC2)cc1 (some centres not stated) | 230
c1ccc2c(C3CCN(CCCCOc4ccc5c(c4)CCN(C4CCC4)CC5)CC3)c[nH]c2c1 | 710
COc1cccc(Nc2nc(Nc3cccc(C#N)c3)cc(-c3ccncc3)n2)c1 | 760
O=C(/C=C/c1ccc(C(F)(F)F)cc1)N1CCc2cc3nccc(N4CCN5CCC[C@H]5C4)c3cc21 | 1510
O=C1C2=C(Nc3ccccc3SC2c2ccccc2)c2ccccc21 (configuration not stated) | 330
O=C(Nc1ccc(-c2nc3cc4ccccc4cc3[nH]2)cc1)c1cccc(Br)c1 | 360
COc1cccc(CNC[C@@H](O)[C@H](Cc2ccccc2)NC(=O)c2cc3c4c(c2)c(C(C)C)cn4CCS(=O)(=O)N3C)c1 | 150
CCN(CC)CCN(Cc1ccc(-c2ccc(C(F)(F)F)cc2)cc1)C(=O)Cn1c(CCc2cc(F)cc(F)c2)nc(=O)c2ccccc21 | 980
CC(O)C1CCCCN1C(=O)c1cccc(-c2ccc(-c3nc4ccc(C(F)(F)F)cc4[nH]3)cc2)c1 (configuration not stated) | 690
CN1CCN(c2ccc(Nc3nc(N)c4ccn(C5CCC5)c4n3)cc2)CC1 | 1220
CC(Cc1ccc(C(C)(C)C)cc1)NCC(O)c1ccccc1 (configuration not stated) | 1810
COc1ccc(CNCc2ccc(-c3ccc(CNCCc4ccccc4)cn3)cc2)cn1 | 1010
O=C(Nc1ccc(-c2ccc(-c3nc4ccccc4[nH]3)cc2)cc1)Nc1ccc(Cl)c(Cl)c1 | 100
Cc1nnc2c(NC(=O)/C=C/c3ccc(OC(F)(F)F)cc3)cc3cc(Cl)ccc3n12 | 170
CC(C)(C)c1cc2cc(Nc3ccnc4cc(-c5nccs5)ccc34)ccc2[nH]1 | 440
CCN1CCC(N(CCCCCCCCc2ccc(C(F)(F)F)cc2)C(=O)Cn2c(CCc3cccc(F)c3F)cc(=O)c3ccccc32)CC1 | 1200
CCOC(=O)CNC(=O)N(CCN(Cc1ccccc1)C(=O)NCC(=O)OCC)Cc1ccccc1 | 770
Cc1ccc(O)cc1Nc1c(C(N)=O)cnc2ccc(-c3cncs3)cc12 | 670
O=C(Nc1ccc2c(c1)CCC2)N[C@H]1CCN(CCCCCNC(=O)[C@@H]2C[C@H]2c2ccc(Cl)c(Cl)c2)C1 | 1080

Compound | IC50 [nM]
CCCC(=O)Nc1ccc(OCCCN(Cc2ccccc2F)c2ccc(C#N)c(C(F)(F)F)c2)cc1 | 590
Cc1c(CNCCCNc2nc3cscc3[nH]2)sc(C(F)F)c1Br | 940
O=S(=O)(c1cc(Cl)ccc1Cl)N1CCCCC(c2ccc(C(F)(F)F)cc2)=N1 | 1000
Fc1ccc2nc(-c3ccc(-c4ccc(CNCCN5CCNCC5)cc4)s3)[nH]c2c1 | 780
O=C(Cc1ccccc1)NC(c1ccco1)c1cc(Cl)c2cccnc2c1O (configuration not stated) | 690
COc1cc(NC(=O)Nc2ccc(Br)cc2C(=O)Nc2ccc(Br)cc2)cc(OC)c1OC | 760
CN1CCC(NCc2ccc(-c3ccc(Cl)cc3)cc2)CC1 | 750
CC(CN)OCn1cnc2c(N)ncnc21 (configuration not stated) | 230
CC(=O)Nc1ccc(CN(Cc2ccc(F)cc2)Cc2cccc(Oc3ccccc3)c2)cc1 | 940
COc1cccc2cc(C(=O)N[C@@H](CC(C)C)C(=O)N[C@H](/C=N/NC(=O)OC(C)(C)C)Cc3ccccc3)oc12 | 300
COC(=O)/C=C/c1ccc(CC(C)NCC(O)c2cccc(Br)c2)cc1 (configuration not stated) | 720
O=[N+]([O-])c1ccc2c(-c3ccccc3)c(-c3ccccc3)n(O)c2c1 | 990
COc1cc2c(C3CCN(CC4CCC(NC(=O)/C=C/c5ccc(Cl)c(Cl)c5)CC4)CC3)c[nH]c2cn1 (configuration not stated) | 420
CC(C)N1CCN(c2ccc(OCCCCN3CCN(c4cccc(Cl)c4Cl)CC3)c(C(F)(F)F)c2)CC1 | 820
Cc1c[nH]c2ccc(/C=C/C(=O)NC3CCC(CCN4CCc5ccc(C#N)cc5CC4)CC3)cc12 (configuration not stated) | 830
COc1cccc(C2(NC[C@@H](O)[C@H](Cc3ccccc3)NC(=O)c3ccccc3)CCCCC2)c1 | 730
Cc1ccccc1CNc1noc(-c2c(-c3ccccc3)noc2C)n1 | 900
O=C(COc1cccc([N+](=O)[O-])c1)Nc1ccc(-c2nc3ccccc3[nH]2)cc1 | 750
CN1CCN(CCCN(Cc2csc(-c3ccc(CNCc4ccccc4)cc3)n2)S(=O)(=O)c2cccc3cccnc23)CC1 | 1410
Clc1nc2ccccn2c1C=Cc1ccc2ccccc2n1 | 270
COc1ccc(OC)c2c1CCN(CCN1CCC(C(=O)Nc3ccc(C(=O)Nc4ccc(Cl)cc4)cc3)CC1)C2 | 580
COC(=O)c1ccc(CCC(C)NCC(O)c2cccc(Cl)c2)cc1 (configuration not stated) | 670
Oc1ccc(CCNCc2ccc(OCc3ccccc3)c(OCc3ccccc3)c2)cc1 | 1510
